Reference: the NIST ThermoML archive (doi:10.1021/acs.jced.8b00229)

Conditions: Liquid, Vibrating tube method

FCC(F)(F)F [1,1,1,2-tetrafluoroethane]
Conditions	mass density [kg/m3]
283.55 K, 40000 kPa	1376.3
283.55 K, 60000 kPa	1413.1
283.55 K, 80000 kPa	1443.2
283.56 K, 20000 kPa	1328.7
283.57 K, 5000 kPa	1279.4
283.57 K, 10000 kPa	1297.9
303.39 K, 1000 kPa	1188.5
303.39 K, 5000 kPa	1212.5
303.39 K, 10000 kPa	1237
303.39 K, 20000 kPa	1275.9
303.39 K, 40000 kPa	1332.1
303.39 K, 80000 kPa	1407.4
303.4 K, 60000 kPa	1373.9
322.89 K, 3000 kPa	1120.9
322.91 K, 5000 kPa	1137.8
322.91 K, 10000 kPa	1172
322.93 K, 20000 kPa	1221.5
322.93 K, 40000 kPa	1288.4
322.93 K, 60000 kPa	1335.8
322.94 K, 80000 kPa	1372.8
342.75 K, 3000 kPa	1017.4
342.75 K, 5000 kPa	1047.5
342.76 K, 10000 kPa	1098.8
342.77 K, 20000 kPa	1164.1
342.77 K, 40000 kPa	1243.6
342.78 K, 60000 kPa	1297.3
342.78 K, 80000 kPa	1338.2
362.57 K, 5000 kPa	924.9
362.57 K, 10000 kPa	1015.4
362.58 K, 20000 kPa	1103.4
362.59 K, 40000 kPa	1198.4
362.59 K, 60000 kPa	1258.8
362.59 K, 80000 kPa	1303.8
